Common to all, as to assay type: in vivo
The subject of assay [1] is Rhyncosporium secalis. The assay is described as follows: Barley scald (RHYNSE), percent disease control. Particulars: 24 h, 1 Day Protectant, read-out: Disease control RHYNSE 1DP. The procedure:
Technical grades of materials were dissolved in acetone, which were then mixed with nine volumes of water containing 110 ppm Triton X-100. The fungicide solutions were applied onto wheat seedlings using an automated booth sprayer to run-off. All sprayed plants were allowed to air dry prior to further handling. All fungicides were evaluated using the aforementioned method for their activity vs. all target diseases. Wheat leaf blotch and brown rust activity were also evaluated using track spray applications, in which case the fungicides were formulated as EC formulations, containing 0.1% Trycol 5941 in the spray solutions. Wheat plants (variety Yuma) were grown from seed in a greenhouse in 50% mineral soil/50% soil-less Metro mix until the first leaf was fully emerged, with 7-10 seedlings per pot. These plants were inoculated with an aqueous spore suspension of Septoria tritici either prior to or after fungicide treatments. After inoculation the plants were kept in 100% relative humidity (one day in a dark dew chamber followed by two to three days in a lighted dew chamber at 20° C.) to permit spores to germinate and infect the leaf. The plants were then transferred to a greenhouse set at 20° C. for disease to develop. When disease symptoms were fully expressed on the 1st leaves of untreated plants, infection levels were assessed on a scale of 0 to 100 percent disease severity. Percent disease control was calculated using the ratio of disease severity on treated plants relative to untreated plants. Evaluation of Fungicidal Activity: Barley Scald (Rhyncosporium secalis; Bayer Code […]) Barley seedlings (variety Harrington) were propagated in soil-less Metro mix, with each pot having 8 to 12 plants, and used in the test when first leaf was fully emerged. Test plants were inoculated by an aqueous spore suspension of Rhyncosporium secalis 24 hr after fungicide treatments. After inoculation the plants were kept in a dew room at 20° C. with 100% relative humidity for 48 hr. The plants were then transferred to a greenhouse set at 20° C. for disease to develop. Fungicide formulation, application and disease assessment on the sprayed leaves followed the procedures as described in the Example A.

The subject of assay [2] is Mycosphaerella graminicola; Anamorph: Septoria tritici. The assay is described as follows: Leaf blotch of wheat (SEPTTR), percent disease control on wheat seedlings. As to conditions: Zymoseptoria tritici, rate 100 ppm. The procedure:
Evaluation of Fungicidal Activity: Leaf Blotch of Wheat (Mycosphaerella graminicola; Anamorph: Septoria tritici; Bayer Code […]) Technical grades of materials were dissolved in acetone, which were then mixed with nine volumes of water containing 110 ppm Triton X-100. The fungicide solutions were applied onto wheat seedlings using an automated booth sprayer to run-off. All sprayed plants were allowed to air dry prior to further handling. All fungicides were evaluated using the aforementioned method for their activity vs. all target diseases. Wheat leaf blotch and brown rust activity were also evaluated using track spray applications, in which case the fungicides were formulated as EC formulations, containing 0.1% Trycol 5941 in the spray solutions. Wheat plants (variety Yuma) were grown from seed in a greenhouse in 50% mineral soil/50% soil-less Metro mix until the first leaf was fully emerged, with 7-10 seedlings per pot. These plants were inoculated with an aqueous spore suspension of Septoria tritici either prior to or after fungicide treatments. […] When disease symptoms were fully expressed on the 1st leaves of untreated plants, infection levels were assessed on a scale of 0 to 100 percent disease severity. Percent disease control was calculated using the ratio of disease severity on treated plants relative to untreated plants.

Assay [3] has as its system Puccinia triticina. The assay is described as follows: Wheat brown rust (PUCCRT), percent disease control on wheat seedlings. Particulars: rate 100 ppm.

The structures appear in SMILES notation. Read-outs that look alike come from different tables or passages of the source. Bounds are passed on as bounds.

On to `CCCO[C@H]1CCC[C@H](NC(=O)c2nccc(OC)c2OCOC(C)=O)C(=O)O[C@@H](C)[C@@H]1CCC(C)C` [Compound 25, ((2-(((3S,7S,8S,9S)-8-isopentyl-9-methyl-2-oxo-7-propoxyoxonan-3-yl)carbamoyl)-4-methoxypyridin-3-yl)oxy)methyl acetate], for which, in assay [1], the pest or weed control at 100 ppm was > 70%.
The same measure, in the same setting: the same measure for `CCCC[C@H]1[C@H](C)OC(=O)[C@@H](NC(=O)c2nccc(OC)c2OCOC(C)=O)CCC[C@@H]1Oc1ccccc1` [Compound 33]: > 70%.
Still for that read-out and setting: under `COc1ccnc(C(=O)N[C@H]2CCC[C@H](Oc3ccccc3)[C@@H](CCC(C)C)[C@H](C)OC2=O)c1OC(C)=O` [Compound 36] stands > 70%; under `COc1ccnc(C(=O)N[C@H]2CCC[C@H](Oc3ccccc3)[C@@H](CCC(C)C)[C@H](C)OC2=O)c1OCOC(C)=O` [Compound 40], > 70%; under `COc1ccnc(C(=O)N[C@H]2CCC[C@H](OCC3CC3)[C@@H](Cc3ccc(F)cc3)[C@H](C)OC2=O)c1OCOC(C)=O` [Compound 61], > 70%.
`COc1ccnc(C(=O)N[C@H]2CCC[C@H](OCC(C)C)[C@@H](Cc3ccccc3)[C@H](C)OC2=O)c1O` [Compound 62]: the pest or weed control at 100 ppm in assay [2] (24 h, 1 Day Protectant, read-out: Disease control SEPTTR 1DP) was > 70%; in assay [2] (72 h, 3 Day Curative, read-out: Disease control SEPTTR 3DC), < 70%; in assay [3] (24 h, 1 Day Protectant, read-out: Disease control PUCCRT 1DP), > 70%; in assay [3] (72 h, 3 Day Curative, read-out: Disease control PUCCRT 3DC), > 70%.
As to `CCCO[C@H]1CCC[C@H](NC(=O)c2nccc(OC)c2OC(C)=O)C(=O)O[C@@H](C)[C@@H]1Cc1ccccc1` [Compound 70], the pest or weed control at 100 ppm in assay [1] is > 70%.
The same measure, in the same setting: the same measure for `CCCC[C@H]1[C@H](C)OC(=O)[C@@H](NC(=O)c2nccc(OC)c2OCOC(C)=O)CCC[C@@H]1OCC1CC1` [Compound 73]: > 70%; for `CCCO[C@H]1CCC[C@H](NC(=O)c2nccc(OC)c2OC(C)=O)C(=O)O[C@@H](C)[C@@H]1CCC(C)C` [Compound 74, 2-((3S,7S,8S,9S)-8-isopentyl-9-methyl-2-oxo-7-propoxyoxonan-3-yl)carbamoyl)-4-methoxypyridin-3-yl acetate]: > 70%.

Values taken from patent US9549555B2, “Macrocyclic picolinamide compounds with fungicidal activity” (DOW AGROSCIENCES LLC, priority 2013, dated 2017).
